{
  "source": "paper PMC12443862",
  "about": "“The second life of Citrus bergamia: bioavailability analysis of a new formulation using waste-based microencapsulation as a valuable source of bioactive compounds” (Pharmacological Reports, 2025)",
  "origin": "cited, not measured here",
  "design": "method as in PMID 25200135",
  "conditions": "hesperidin micronization (5.1 μm)",
  "data": [
    {"molecule": "COc1ccc([C@@H]2CC(=O)c3c(O)cc(O[C@@H]4O[C@H](CO[C@@H]5O[C@@H](C)[C@H](O)[C@@H](O)[C@H]5O)[C@@H](O)[C@H](O)[C@H]4O)cc3O2)cc1O", "note": "[hesperidin]", "values": [
      {"measurement": "Increase of flavanone's bioavailability compared to conventional hesperidin (32.8 μm)", "value": 2, "unit": "fold"}
    ]}
  ]
}
